According to EP4759807A1, “PROTEOLYSIS TARGETING CHIMERA COMPOUND FOR DEGRADING IRAK4 AND USE THEREOF” (Shenzhen Zhongge Biological Technology Co., Ltd., priority 2023, dated 2025):
Like-named read-outs stand apart in the source and are kept apart here.

Biological target: T1, IRAK4 (Homo sapiens, UniProt Q9NWZ3)
T1 sequence (Q9NWZ3 1-460): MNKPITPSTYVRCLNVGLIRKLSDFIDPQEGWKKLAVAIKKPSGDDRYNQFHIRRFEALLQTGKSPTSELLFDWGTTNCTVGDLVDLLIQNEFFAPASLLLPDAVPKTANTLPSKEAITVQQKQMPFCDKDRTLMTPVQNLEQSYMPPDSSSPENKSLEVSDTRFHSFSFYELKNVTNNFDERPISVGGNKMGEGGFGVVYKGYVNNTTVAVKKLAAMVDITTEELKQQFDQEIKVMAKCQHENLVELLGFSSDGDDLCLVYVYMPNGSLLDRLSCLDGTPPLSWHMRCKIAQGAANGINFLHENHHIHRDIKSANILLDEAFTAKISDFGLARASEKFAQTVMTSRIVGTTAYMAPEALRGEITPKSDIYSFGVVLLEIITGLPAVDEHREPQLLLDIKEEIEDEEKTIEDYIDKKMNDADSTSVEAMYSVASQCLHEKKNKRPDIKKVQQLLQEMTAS
Assay: Hibit fluorescence detection of proteolysis (IRAK4-HiBiT in HEK293T cells)
Format: cell-based
Design: host or cells: HEK293T (ATCC)
Procedure, shortened: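 Degradation read-out: luminescence from lytic HiBiT detection (15 min, room temperature) after 24 h compound exposure (37 °C, 5% CO2) of HEK293T cells transiently expressing IRAK4 fused to a HiBiT tag. Data fitted to a bell-shaped four-parameter model giving two EC50 values.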

[1] = IRAK4-HiBiT, HEK293T cells, 24 h
[2] = IRAK4-HiBiT, HEK293T cells, 24 h, read-out: DC50

| Structure (SMILES) | Dmax (HEK-293T) | DC50 [1] | DC50 [2] | Dmax [1] |
| --- | --- | --- | --- | --- |
| Cn1c(=O)n(C2CCC(=O)NC2=O)c2cccc(N3CCN(C[C@H]4CC[C@H](n5cc(-n6cc(-n7ccc8cc(C(N)=O)cnc87)nn6)c(C(F)F)n5)CC4)CC3)c21 (stereo partly drawn) [Example 100, 1-(1-(3-(difluoromethyl)-1-((1r,4r)-4-((4-(1-(2,6-dioxopiperidin-3-yl)-3-methyl-2-oxo-2,3-dihydro-1H-benzo[d]imidazol-4-yl)piperazin-1-yl)methyl)cyclohexyl)-1H-pyrazol-4-yl)-1H-1,2,3-triazol-4-yl)-1H-pyrrolo[2,3-b]pyridine-5-carboxamide] | 60 to 70% | 0.5 to 1 nM |  |  |
| Cn1c(=O)n(C2CCC(=O)NC2=O)c2cccc(C#CC3CN(C[C@H]4CC[C@H](n5cc(-n6cc(-c7ccc8cc(C(N)=O)cnn78)nn6)c(C(F)F)n5)CC4)C3)c21 (stereo partly drawn) [Example 87] | 70 to 80% | 0.5 to 1 nM |  |  |
| Cn1c(=O)n(C2CCC(=O)NC2=O)c2cccc(N3CC4CN(C[C@H]5CC[C@H](n6cc(-n7cc(-c8ccc9cc(C(N)=O)cnn89)nn7)c(C(F)F)n6)CC5)CC4C3)c21 (stereo partly drawn) [Example 81] | > 80% | < 0.5 nM |  |  |
| Cn1c(=O)n(C2CCC(=O)NC2=O)c2cccc(N3CCC4(CCN(C[C@H]5CC[C@H](n6cc(-n7cc(-c8cnn9ccc(NCCC(C)(C)O)nc89)nn7)c(C(F)F)n6)CC5)C4)CC3)c21 (stereo partly drawn) [Example 134] | > 80% | < 0.5 nM |  |  |
| NC(=O)c1cnn2c(-c3cn(-c4cn(C5CCN(CCN6CCN(c7ccc8c(c7)C(=O)N(C7CCC(=O)NC7=O)C8=O)CC6)CC5)nc4C(F)F)nn3)ccc2c1 (stereo not drawn) [Example 93] | 70 to 80% | 1 to 5 nM |  |  |
| C[C@H]1CN(c2ccn3ncc(-c4cn(-c5cn([C@H]6CC[C@H](CN7CCC8(CC7)CCN(c7cccc9c7n(C)c(=O)n9C7CCC(=O)NC7=O)C8)CC6)nc5C(F)F)nn4)c3n2)CCO1 (stereo partly drawn) [Compound 203] | > 80% |  | < 0.5 nM |  |
| Cn1c(=O)n(C2CCC(=O)NC2=O)c2cccc(CN3CCC4(CC3)CN(C[C@H]3CC[C@H](n5cc(-n6cc(-c7cnn8ccc(N9CCOCC9)nc78)nn6)c(C(F)F)n5)CC3)C4)c21 (stereo partly drawn) [Example 14] | < 60% | 0.5 to 1 nM |  |  |
| Cn1c(=O)n(C2CCC(=O)NC2=O)c2cccc(N3CC4(CCN(C[C@H]5CC[C@H](n6cc(-n7cc(-c8cnn9ccc(N%10CCOCC%10)nc89)nn7)c(C(F)F)n6)CC5)CC4)C3)c21 (stereo partly drawn) [Example 43, 3-(4-(7-(((1r,4r)-4-(3-(difluoromethyl)-4-(4-(5-morpholinopyrazolo[1,5-a]pyrimidin-3-yl)-1H-1,2,3-triazol-1-yl)-1H-pyrazol-1-yl)cyclohexyl)methyl)-2,7-diazaspiro[3.5]nonan-2-yl)-3-methyl-2-oxo-2,3-dihydro-1H-benzo[d]imidazol-1-yl)piperidine-2,6-dione] | > 80% | < 0.5 nM |  |  |
| Cn1c(=O)n(C2CCC(=O)NC2=O)c2cccc(N3CCC4(CC3)CN(C[C@H]3CC[C@H](n5cc(-n6cc(-c7ccc8cc(C(N)=O)cnn78)nn6)c(C(F)F)n5)CC3)CCO4)c21 (stereo partly drawn) [Example 89, 7-(1-(3-(difluoromethyl)-1-((1r,4r)-4-((9-(1-(2,6-dioxopiperidin-3-yl)-3-methyl-2-oxo-2,3-dihydro-1H-benzo[d]imidazol-4-yl)-1-oxa-4,9-diazaspiro[5.5]undecan-4-yl)methyl)cyclohexyl)-1H-pyrazol-4-yl)-1H-1,2,3-triazol-4-yl)pyrrolo[1,2-b]pyridazine-3-carboxamide] | > 80% | 0.5 to 1 nM |  |  |
| Cn1c(=O)n(C2CCC(=O)NC2=O)c2cccc(N3CCN(C4CCN(C[C@H]5CC[C@H](n6cc(-n7cc(-c8cnn9ccc(NCC%10CC%10)nc89)nn7)c(C(F)F)n6)CC5)CC4)CC3)c21 (stereo partly drawn) [Example 110, 3-(4-(4-(1-(((1r,4r)-4-(4-(5-((cyclopropylmethyl)amino)pyrazolo[1,5-a]pyrimidin-3-yl)-1H-1,2,3-triazol-1-yl)-3-(difluoromethyl)-1H-pyrazol-1-ylcyclohexyl)methyl)piperidin-4-yl)piperazin-1-yl)3-methyl-2-oxo-2,3-dihydro-1H-benzo[d]imidazol-1-yl)piperidine-2,6-dione] | > 80% | < 0.5 nM |  |  |
| Cn1c(=O)n(C2CCC(=O)NC2=O)c2cccc(N3CCC4(CCN(C[C@H]5CC[C@H](n6cc(-n7cc(-c8cnn9ccc(N%10CCC[C@H](O)C%10)nc89)nn7)c(C(F)F)n6)CC5)CC4)C3)c21 (stereo partly drawn) [Example 143] | > 80% | < 0.5 nM |  |  |
| Cn1c(=O)n(C2CCC(=O)NC2=O)c2cccc(CN3CCN(C[C@H]4CC[C@H](n5cc(-n6cc(-c7ccc8cc(C(N)=O)cnn78)nn6)c(C(F)F)n5)CC4)CC3)c21 (stereo partly drawn) [Example 68] | > 80% | < 0.5 nM |  |  |
| Cl.Cn1c(=O)n(C2CCC(=O)NC2=O)c2cccc(N3CCN(C4CCN(C[C@H]5CC[C@H](n6cc(-n7cc(-c8cnn9ccc(N%10CCNCC%10)nc89)nn7)c(C(F)F)n6)CC5)CC4)CC3)c21 (stereo partly drawn) [Example 131] |  |  |  | A (Dmax ≥ 80%) |
| CN1CCN(c2ccn3ncc(-c4cn(-c5cn([C@H]6CC[C@H](CN7CCC(N8CCN(c9cccc%10c9n(C)c(=O)n%10C9CCC(=O)NC9=O)CC8)CC7)CC6)nc5C(F)F)nn4)c3n2)CC1 (stereo partly drawn) [Compound 229] | 60 to 70% |  | < 0.5 nM |  |
| NC(=O)c1cnn2c(-c3cn(-c4cn([C@H]5CC[C@H](CN6CC7(CC(CCNc8cccc9c8C(=O)N(C8CCC(=O)NC8=O)C9=O)C7)C6)CC5)nc4C(F)F)nn3)ccc2c1 (stereo partly drawn) [Example 76, 7-(1-(3-(difluoromethyl)-1-((1r,4r)-4-((6-(2-((2-(2,6-dioxopiperidin-3-yl)-1,3-dioxoisoindolin-4-yl)amino)ethyl)-2-azaspiro[3.3]hept-2-yl)methyl)cyclohexyl)-1H-pyrazol-4-yl)-1H-1,2,3-triazol-4-yl)pyrrolo[1,2-b]pyridazine-3-carboxamide] | < 60% | < 0.5 nM |  |  |
| Cn1c(=O)n(C2CCC(=O)NC2=O)c2cccc(CN3CCC4(CC3)CC(NC[C@H]3CC[C@H](n5cc(-n6cc(-c7cnn8ccc(N9CCOCC9)nc78)nn6)c(C(F)F)n5)CC3)C4)c21 (stereo partly drawn) [Example 4] | > 80% | < 0.5 nM |  |  |
| Cn1c(=O)n(C2CCC(=O)NC2=O)c2cccc(N3CCC4(CCN(C[C@H]5CC[C@H](n6cc(-n7cc(-c8cnn9ccc(N%10CCOCC%10)nc89)nn7)c(C(F)F)n6)CC5)C4)C3)c21 (stereo partly drawn) [Example 32, 3-(4-((1r,4r)-4-(3-(difluoromethyl)-4-(4-(5-morpholinopyrazolo[[1,5-a]pyrimidin-3-yl)-1H-1,2,3-triazol-1-yl)-1H-pyrazol-1-yl)cyclohexylmethyl)-2,7-diazaspiro[4.4]non-2-yl)-3-methyl-2-oxo-2,3-dihydro-1H-benzo[d]imidazol-1-yl)piperidine-2,6-dione] | 70 to 80% | < 0.5 nM |  |  |
| Cn1c(=O)n(C2CCC(=O)NC2=O)c2cccc(N[C@H]3CC[C@H](N(C)C[C@H]4CC[C@H](n5cc(-n6cc(-c7cnn8ccc(N9CCC(C)(O)CC9)nc78)nn6)c(C(F)F)n5)CC4)CC3)c21 (stereo partly drawn) [Compound 237] | 70 to 80% |  | < 0.5 nM |  |
| NC(=O)c1cnn2c(-c3cn(-c4cn(C5CCN(CC6CCC7(CC6)CCN(C(=O)c6ccc(Cl)c(N8CCC(=O)NC8=O)c6)CC7)CC5)nc4C(F)F)nn3)ccc2c1 [Example 77] | 70 to 80% | 0.5 to 1 nM |  |  |
| CN1CCN(c2ccn3ncc(-c4cn(-c5cn([C@H]6CC[C@H](CN7CCC8(CC7)CCN(c7cccc9c7n(C)c(=O)n9C7CCC(=O)NC7=O)CC8)CC6)nc5C(F)F)nn4)c3n2)CC1 (stereo partly drawn) [Compound 233] | 70 to 80% |  | 0.5 to 1 nM |  |
